From patent US11702400B2, “Salt types, crystal forms, and preparation methods for benzopyrazole compounds as RHO kinase inhibitors” (MEDSHINE DISCOVERY INC., priority 2019, dated 2023)

How the values were obtained:
[1] = Solid stability test of the crystal form A of the compound of formula (II-1) (XRPD); format: physicochemical
Procedure: About 10 mg of the crystal form was accurately weighed and added to a dry and clean glass flask, spread into a thin layer, covered with aluminum foil, pierced small holes and placed under the influence factor test conditions and under accelerated conditions. Samples placed under illumination (visible light 1200000 Lux, UV 200 W) conditions were placed in clear glass flasks, fully exposed, and samples used for XRPD detection were placed separately.
After the samples were removed at the time point, the cover was covered, and the flask was sealed using sealing film, and stored in −20° C. refrigerator. When preparing the sample, the sample was removed from the refrigerator, restored to room temperature; 10 mL of 80% ACN was added, and the sample was dissolved by sonication for 2 min to obtain a solution with a concentration of about 1 mg/mL, then the liquid phase was used for injection analysis, and the detection results were compared with the initial detection results on day 0.
Preparation of standard solution on day 0: About 10 mg of the crystal was weighed and added to a 10 mL volumetric flask, dissolved with 80% ACN and the volume was fixed to the scale.

[2] = Pharmacokinetic study of the crystal form A of the compound of formula (II-1) in Beagle dogs; format: in vivo
Procedure: Experimental purpose: To study the pharmacokinetics of the compounds in Beagle dogs
Experimental materials: Beagle dogs (12, half male and half female)
Experimental procedure: The pharmacokinetic characteristics of the compounds were tested in Beagle dogs after intravenous (IV) and oral (PO) administration using standard protocols. The candidate compounds were prepared into 0.5 mg/mL and 1.5 mg/mL clarified solutions and administrated to Beagle dogs for single intravenous injection and oral administration. The solvent for both intravenous and oral administration was 5% DMSO/95% (10% hydroxypropyl β-cyclodextrin) aqueous solution. 12 beagle dogs were used in this project, 6 beagle dogs (half male and half female) were administered intravenously at a dose of 1 mg/kg and plasma samples were collected at […], 0.5, 1, 2, 4, 8, 12, 24, 36, 48 and 72 h after administration, and the other 6 beagle dogs (half male and half female) were administered orally by gavage at a dose of 7.5 mg/kg and plasma samples were collected at 0.25, 0.5, 1, 2, 4, 8, 12, 24, 36, 48 and 72 h after administration. 15 μL of plasma sample was added to a 96-well plate, and 300 μL of internal standard working solution (MeOH (containing 1.00 ng/mL Verapamil and 0.1% formic acid (FA)): ACN (v:v, 50:50) solution) was added to precipitate the proteins, the 96-well plate was shaken for 15 min, followed by centrifugation at 4° C., 3220 g for 15 min. 150 μL of supernatant was placed in a new 96-well plate with 150 μL of aqueous solution containing 0.1% formic acid (FA) and shaken for 10 min, and then centrifuged at 4° C., 3220 g for 5 min. The sample was directly injected, and the plasma drug concentration was quantitatively analyzed by LC-MS/MS analysis method, and pharmacokinetic parameters were calculated, such as peak concentration (Cmax), clearance rate (CL), half-life (T1/2), […] (Vdss), area under the drug-time curve (AUC0-last), bioavailability (F), etc.

[3] = Accelerated stability test of the crystal form A of the compound of formula (II-1); format: physicochemical; details: long-term placement conditions
[4] = Influence factor stability test of the crystal form A of the compound of formula (II-1); format: physicochemical
Procedure: High humidity (25° C./92.5% RH): 1 g of each sample was weighed and the sample was placed in an open flat weighing bottle (70×35 mm) under 25° C./92.5% RH conditions, and then placed in a comprehensive drug stability chamber (25° C./92.5% RH) for investigation.
High temperature (60° C.): 1 g of each sample was weighed and the sample was placed in an open flat weighing bottle under 60° C. conditions, and then placed in a blast drying oven (60° C.) for investigation.
Illumination: 1 g of each sample was weighed. The samples with illumination condition were placed in a clean watch glass, spread into a thin layer and put into 5000±500 lux (visible light) with 90 μw/cm^2 (UV) conditions for illumination.

[5] = Accelerated stability test of the crystal form A of the compound of formula (II-1); format: physicochemical; details: 40° C./75% RH
Procedure: Accelerated stability test: each sample was weighed 0.8 g (accelerated 1 month, accelerated 2 months) or 1.2 g (accelerated 3 months, accelerated 6 months) into double-layer low-density polyethylene (LDPE) bags, and each layer of LDPE bags was pierced and sealed, and then the LDPE bags were put into aluminum foil bags and heat sealed, respectively, and put into 40° C./75% RH conditions for investigation.

Crystal form ([1]; 0 day): Crystal form A | solid stability (conclusion in words) ([1]; 92.5% high humidity conditions): crystal transformation will occur | Crystal form ([1]; High humidity (relative humidity 75%, open), 5 days): Crystal form A | Crystal form ([1]; High humidity (relative humidity 75%, open), 10 days): Crystal form A | Crystal form ([1]; High humidity (relative humidity 92.5%, open), 5 days): Crystal form C | Crystal form ([1]; High humidity (relative humidity 92.5%, open), 10 days): Crystal form C | Crystal form ([1]; High temperature (60° C., open), 5 days): Crystal form A | Crystal form ([1]; High temperature (60° C., open), 10 days): Crystal form A | Crystal form ([1]; High temperature and humidity (40° C. relative humidity 75%, open), 5 days): Crystal form A | Crystal form ([1]; High temperature and humidity (40° C. relative humidity 75%, open), 10 days): Crystal form A | Crystal form ([1]; High temperature and humidity (60° C. relative humidity 75%, open), 5 days): Crystal form A | Crystal form ([1]; High temperature and humidity (60° C. relative humidity 75%, open), 10 days): Crystal form A | Crystal form ([1]; Illumination (total illuminance = 1.2 × 10^6 Lux·hr/near UV = 200 w·hr/m^2, open), 5 days): Crystal form A | Crystal form ([1]; Illumination (total illuminance = 1.2 × 10^6 Lux·hr/near UV = 200 w·hr/m^2, open), 10 days): Crystal form A | solid stability (conclusion in words) ([1]; high temperature, 75% humidity and strong illumination conditions): good stability | Clearance rate CL ([2]; Beagle dogs, IV 1 mg/kg): 22.3 mL/min/kg | Half-life T1/2 (IV) ([2]; Beagle dogs, IV 1 mg/kg): 12.4 h | Tissue distribution Vdss ([2]; Beagle dogs, IV 1 mg/kg): 18.6 L/kg | Bioavailability F ([2]; Beagle dogs, IV 1 mg/kg, PO 7.5 mg/kg): 90.4% | Area under drug-time curve AUC0-last PO ([2]; Beagle dogs, PO 7.5 mg/kg): 12.6 µM·h | Cmax ([2]; Beagle dogs, half male and half female, PO 7.5 mg/kg, read-out: Peak concentration Cmax): 834 nM | pharmacokinetic properties (conclusion in words) ([2]; beagle dogs): good pharmacokinetic properties | stability in accelerated test (conclusion in words) [3]: stable | Content ([4]; 0 day): 99.5% | Impurity at relative retention time (RRT) 0.66 ([4]; 0 day): 0.06% | Impurity at relative retention time (RRT) 0.85 ([4]; 0 day): 0.34% | Impurity at relative retention time (RRT) 0.90 ([4]; 0 day): 0.02% | Impurity at relative retention time (RRT) 1.64 ([4]; 0 day): 0.06% | Total impurities ([4]; 0 day): 0.46% | Content ([4]; 25° C./92.5% RH, 1 month): 98.9% | Impurity at relative retention time (RRT) 0.66 ([4]; 25° C./92.5% RH, 1 month): 0.06% | Impurity at relative retention time (RRT) 0.85 ([4]; 25° C./92.5% RH, 1 month): 0.32% | Impurity at relative retention time (RRT) 0.90 ([4]; 25° C./92.5% RH, 1 month): 0.03% | Impurity at relative retention time (RRT) 1.64 ([4]; 25° C./92.5% RH, 1 month): 0.05% | Total impurities ([4]; 25° C./92.5% RH, 1 month): 0.43% | Content ([4]; 60° C., 1 month): 99.6% | Impurity at relative retention time (RRT) 0.66 ([4]; 60° C., 1 month): 0.06% | Impurity at relative retention time (RRT) 0.85 ([4]; 60° C., 1 month): 0.31% | Impurity at relative retention time (RRT) 0.90 ([4]; 60° C., 1 month): 0.06% | Impurity at relative retention time (RRT) 1.64 ([4]; 60° C., 1 month): 0.04% | Total impurities ([4]; 60° C., 1 month): 0.43% | Content ([4]; Illumination, 10 days): 97.6% | Impurity at relative retention time (RRT) 0.66 ([4]; Illumination, 10 days): 0.09% | Impurity at relative retention time (RRT) 0.85 ([4]; Illumination, 10 days): 0.31% | Impurity at relative retention time (RRT) 0.90 ([4]; Illumination, 10 days): 0.02% | Impurity at relative retention time (RRT) 1.64 ([4]; Illumination, 10 days): 0.05% | Total impurities ([4]; Illumination, 10 days): 0.51% | stability in influence factor test (conclusion in words) ([4]; illumination, high temperature and high humidity): stable | Content ([5]; 0 day): 99.5% | Impurity at RRT 0.66 ([5]; 0 day): 0.06% | Impurity at RRT 0.85 ([5]; 0 day): 0.34% | Impurity at RRT 0.90 ([5]; 0 day): 0.02% | Impurity at RRT 1.64 ([5]; 0 day): 0.06% | Total impurities ([5]; 0 day): 0.46% | Content ([5]; 1 month): 100.0% | Impurity at RRT 0.66 ([5]; 1 month): 0.06% | Impurity at RRT 0.85 ([5]; 1 month): 0.36% | Impurity at RRT 0.90 ([5]; 1 month): 0.02% | Impurity at RRT 1.64 ([5]; 1 month): 0.05% | Total impurities ([5]; 1 month): 0.47% | Content ([5]; 2 months): 99.6% | Impurity at RRT 0.66 ([5]; 2 months): 0.06% | Impurity at RRT 0.85 ([5]; 2 months): 0.33% | Impurity at RRT 0.90 ([5]; 2 months): 0.03% | Impurity at RRT 1.64 ([5]; 2 months): 0.04% | Total impurities ([5]; 2 months): 0.39% | Content ([5]; 3 months): 98.8% | Impurity at RRT 0.66 ([5]; 3 months): 0.06% | Impurity at RRT 0.85 ([5]; 3 months): 0.33% | Impurity at RRT 0.90 ([5]; 3 months): 0.04% | Impurity at RRT 1.64 ([5]; 3 months): 0.04% | Total impurities ([5]; 3 months): 0.39%
Compound: COc1cccc(C(CN)NC(=O)c2cc(-c3ccc4[nH]nc(C)c4c3)ccn2)c1.Cl.Cl (stereo not drawn)
